A word on the IC50: it is the concentration that gives 50% inhibition. The low end stands for greater potency in that assay, the high end for weaker potency in that assay.

Some results are limits rather than exact numbers.

For this experiment, the target named is human VPS34 (Homo sapiens (Human), UniProt Q8NEB9). Nature of the experiment: Human VPS34 enzyme assay (Adapta TR-FRET ADP detection). The class given is biochemical. The following applies: IC50 range class.
human VPS34, sequence (Q8NEB9 whole entry): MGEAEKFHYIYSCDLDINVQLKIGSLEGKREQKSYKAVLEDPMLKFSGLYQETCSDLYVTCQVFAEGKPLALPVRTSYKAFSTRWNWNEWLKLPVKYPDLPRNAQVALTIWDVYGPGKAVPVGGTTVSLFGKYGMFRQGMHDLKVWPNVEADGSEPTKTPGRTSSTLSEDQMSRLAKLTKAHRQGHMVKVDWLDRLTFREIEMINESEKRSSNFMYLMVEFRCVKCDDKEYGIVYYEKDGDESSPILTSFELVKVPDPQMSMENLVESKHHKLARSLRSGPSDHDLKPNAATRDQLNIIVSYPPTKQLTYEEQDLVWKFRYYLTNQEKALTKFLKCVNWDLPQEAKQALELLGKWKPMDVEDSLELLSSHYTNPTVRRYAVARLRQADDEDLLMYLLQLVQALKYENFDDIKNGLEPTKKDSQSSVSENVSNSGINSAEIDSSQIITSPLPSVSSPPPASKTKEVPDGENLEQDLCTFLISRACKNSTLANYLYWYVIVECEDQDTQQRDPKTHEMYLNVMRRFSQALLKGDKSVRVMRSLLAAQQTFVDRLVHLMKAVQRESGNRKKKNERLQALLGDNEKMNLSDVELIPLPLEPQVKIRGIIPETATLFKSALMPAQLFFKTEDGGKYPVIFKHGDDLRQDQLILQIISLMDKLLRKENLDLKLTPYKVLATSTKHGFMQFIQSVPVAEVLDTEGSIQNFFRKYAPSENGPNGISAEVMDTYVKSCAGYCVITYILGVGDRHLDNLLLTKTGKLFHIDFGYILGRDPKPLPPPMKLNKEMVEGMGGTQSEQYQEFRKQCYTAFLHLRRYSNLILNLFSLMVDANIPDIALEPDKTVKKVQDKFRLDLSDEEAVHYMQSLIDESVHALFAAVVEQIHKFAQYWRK
For the compound `COc1ncc(-c2ccnc(NC(C)=O)c2)cc1C(=O)N(C)C` [Compound I-127, 2′-acetamido-6-methoxy-N,N-dimethyl-3,4′-bipyridine-5-carboxamide], the IC50 is 0.05 to 0.1 µM.

For the compound `Cc1nccc(Nc2cc(-c3cnc(C)c(C(=O)N4CC(C)(C)C4)c3)ccn2)n1` [Compound I-495, (3,3-dimethylazetidin-1-yl){6-methyl-2′-[(2-methylpyrimidin-4-yl)amino]-3,4′-bipyridin-5-yl}methanone], the IC50 fell in the range of 0.01 to 0.05 µM.

`CC(=O)Nc1cc(-c2cnc(C)c(NS(=O)(=O)C3CCCCC3)c2)ccn1` [Compound I-72, N-{5-[(cyclohexylsulfonyl)amino]-6-methyl-3,4′-bipyridin-2′-yl]acetamide] gave an IC50 below 0.01 µM. The same measure for `CC(=O)Nc1cc(-c2cncc(S(=O)(=O)NC3CC3)c2)ccn1` [Compound I-338]: 0.01 to 0.05 µM. The compound `CNc1ncc(-c2ccnc(NC(C)=O)c2)cc1N(C)S(C)(=O)=O` [Compound I-147, N-{6-(methylamino)-5-[methyl(methylsulfonyl)amino]-3,4′-bipyridin-2′-yl}acetamide] came in with an IC50 below 0.01 µM.

Regarding `CC(=O)Nc1cc(-c2cnc(C)c(NS(=O)(=O)N(C)c3ccccc3)c2)ccn1` [Compound I-494, N-(6-methyl-5-{[methyl(phenyl)sulfamoyl]amino}-3,4′-bipyridin-2′-yl)acetamide], the IC50 lay in the range of 0.05 to 0.1 µM. `Cc1nccc(Nc2cc(-c3cnc(C)c(OC(C)C)c3)ccn2)n1` [Compound I-446, 5-isopropoxy-6-methyl-N-(2-methylpyrimidin-4-yl)-3,4′-bipyridin-2′-amine] came in with an IC50 of 0.01 to 0.05 µM. `COc1ncc(-c2ccnc(NC(C)=O)c2)cc1N(C)C(=O)c1ccc(F)cc1F` [Compound I-331, N-(2′-acetamido-6-methoxy-3,4′-bipyridin-5-yl)-2,4-difluoro-N-methylbenzamide] came in with an IC50 above 0.1 µM. `CC(=O)Nc1cc(-c2cnc(C)c(N3CC(NCc4ccccc4)CS3(=O)=O)c2)ccn1` (stereo not shown) [Compound I-357, N-{5-[4-(benzylamino)-1,1-dioxidoisothiazolidin-2-yl]-6-methyl-3,4′-bipyridin-2′-yl}acetamide] returned an IC50 of 0.01 to 0.05 µM. The same measure for `Cc1nccc(Nc2cc(-c3cc(NC(=O)N4CC(F)(F)C4)c4ccnn4c3)ccn2)n1` [Compound I-407, 3,3-difluoro-N-(6-{2-[(2-methylpyrimidin-4-yl)amino]pyridin-4-yl}pyrazolo[1,5-a]pyridin-4-yl)azetidine-1-carboxamide]: 0.01 to 0.05 µM; for `CC(=O)Nc1cc(-c2cncc(N)c2)ccn1` [Compound I-139, N-(5-amino-3,4′-bipyridin-2′-yl)acetamide]: above 0.1 µM; for `COc1ncc(-c2ccnc(NC(C)=O)c2)c(C)c1NS(=O)(=O)N(C)C` [Compound I-268, N-{5-[(dimethylsulfamoyl)amino]-6-methoxy-4-methyl-3,4′-bipyridin-2′-yl}acetamide]: above 0.1 µM. `CCc1ccc(S(=O)(=O)Nc2cc(-c3ccnc(NC(C)=O)c3)cnc2C)cc1` [Compound I-44, N-(5-{[(4-ethylphenyl)sulfonyl]amino}-6-methyl-3,4′-bipyridin-2′-yl)acetamide] displayed an IC50 below 0.01 µM. Regarding `CC(=O)Nc1cc(-c2cnc(C)c(NS(=O)(=O)c3c(F)cccc3F)c2)ccn1` [Compound I-150, N-(5-{[(2,6-difluorophenyl)sulfonyl]amino]-6-methyl-3,4′-bipyridin-2′-yl)acetamide], the IC50 was below 0.01 µM. `O=C(Nc1cc(-c2cnc3[nH]ncc3c2)ccn1)C1CC1` [Compound I-117, N-[4-(1H-pyrazolo[3,4-b]pyridin-5-yl)pyridin-2-yl]cyclopropanecarboxamide] returned an IC50 of 0.01 to 0.05 µM. As for `COc1cc(F)c(S(=O)(=O)Nc2cc(-c3ccnc(NC(C)=O)c3)cnc2C)cc1F` [Compound I-159, N-(5-{[(2,5-difluoro-4-methoxyphenyl)sulfonyl]amino}-6-methyl-3,4′-bipyridin-2′-yl)acetamide], the figure is below 0.01 µM.
